Test system: normal human fibroblasts
Assay: Dermodecontracting effect: spontaneous contraction of attached dermal equivalents (collagen matrix seeded with normal human fibroblasts)
Format: cell-based
Details: dermal equivalent, contraction kinetics 0, 4, 8 and 24 hours
Description: The principle of this test entails studying the effect of the test product on a model of dermal equivalent consisting of a collagen matrix seeded with normal human fibroblasts.
These conditions are suited to mimic, in vitro, the dermal contractile phenomena that occur during facial expressions. Under these conditions, in fact, the cells spontaneously express tensile forces which induce a retraction of the collagen gel. […] The measurement of this surface area makes it possible to evaluate the relaxing effects of the substances brought into contact beforehand with the dermal equivalent.
[…] The experiment is repeated three times.
The dermal equivalents are prepared as described in Asselineau et al., Exp. Cell. Res., 1985,159, 536-539; Models in Dermatology, 1987, vol. 3 pp 1-7, in the following proportions: […]
The collagen used is collagen type I (commercial solution). It is extracted from rat tail or from calf skin by acid hydrolysis and stored in an acidic medium at +4° C.; it polymerizes naturally by heating at 37° C. and by decreasing the degree of acidity. […]
For this, a digital image is acquired for each treated or non-treated dermal equivalent by means of a camera (Camera CCD-Iris Sony DXC-107P) and the surface area is then calculated on each image by means of an image analysis system (Zeiss Axiovision 3.0). […]

SMILES	reduction of the fibroblast contraction, on average over the duration of the experiment, compared with the control (tested at 1 μM)	reduction of the fibroblast contraction, on average over the duration of the experiment, compared with the control (tested at 10 μM)
c1ccc(CCCNC2CCN(CCc3ccccc3)CC2)cc1 [Compound No. 1, 1-(2-phenylethyl)-4-[N-(3-phenylpropyl)]aminopiperidine]	21%	–
CC(NC1CCN(CCc2ccccc2)CC1)c1ccccc1 (centres unmarked) [Compound No. 5, 1-(2-phenylethyl)-4-[N-(1-phenyl-ethyl)]aminopiperidine]	–	40%

Reference: patent US20070265307A1, “Administration of 4-aminopiperidine compounds for inducing and/or stimulating the growth of keratin fibers and/or preventing loss thereof” (L'OREAL, priority 2006, published 2007)
